Entries after “also recorded” stand apart in the source; their conditions may differ.
How the values were obtained:
[1] = system: Smad2 and Smad5; test: Smad phosphorylation by immunoblotting; assay type: cell-based, human; conditions: for Smad5 phosphorylation: 10 ng/mL, 1 hour; for phosphorylation of Smad2 and Smad5 (immunoblotting): HUVECs, 10 ng ml−1, 1 h
Protocol: Human umbilical vein endothelial cells (HUVEC) and human cutaneous microvascular endothelial cells (HCMEC) were provided by J. Bischoff (Children's Hospital Boston) and isolated as previously described^35. […] Cells were grown in culture using EGM-2 medium (Cambrex), containing 10% FBS and 1% Penicillin/Streptomycin, followed by human endothelial serum free medium (Gibco) 24 hours prior to all experimental conditions. Bone marrow derived mesenchymal stem cells (ScienCell Research Laboratories) were grown in mesenchymal stem cell medium (ScienCell Research Laboratories). Human corneal fibroblasts, from a stock initially provided by E. Hay (Harvard Medical School), were grown in RPMI medium, containing 10% FBS and 1% Penicillin/Streptomycin. Primary human osteoblasts, chondrocytes, and adipocytes and their respective growth media were obtained from Cell Applications Inc. Recombinant TGF-β2 and BMP4 proteins (R&D Systems) were added to the serum free culture medium for all relevant experiments at a concentration of 10 ng/mL. Cells were treated for 15 minutes to assess ALK2 phosphorylation, 1 hour to measure Smad5 phosphorylation, or 48 hours to induce EndMT. All experiments for this study were performed at minimum in triplicate.
Immunoassays were performed using the following antibodies at concentrations (and using protocols) recommended by the respective manufacturers: FSP-1 (H00006275-M01; Stressgen), ALK2 (sc-5671), Phospho-tyrosine (sc-7020), VE-cadherin (sc-6458), TIE2 (sc-324, sc-9026), STRO-1 (sc-47733), CD44 (sc-71220), CD90 (sc-9163), Osteocalcin (sc-74495, sc-23790), SOX9 (sc-20095), COL2A1 (sc-59958, sc-52658), PPARγ2 (sc-22022; Santa Cruz Biotechnology), vWF (ab68545; Abcam); His (A00174; GenScript); α-SMA (A5228), β-actin (A1978; Sigma-Aldrich). Samples were run with Criterion precast SDS-PAGE Gels (Bio-Rad). HRP-conjugated IgG TrueBlot reagents (18-8814, 18-8816, 18-8817; eBioscience) were used at a dilution of 1:1000. TrueBlot IgG beads (eBioscience) were used for immunoprecipitation experiments. Alexa Fluor secondary antibodies (Invitrogen) were used at a dilution of 1:200. Images were acquired using a Nikon 80i fluorescence microscope.
Human umbilical vein endothelial cells (HUVEC) and human cutaneous microvascular endothelial cells (HCMEC) isolated as previously described (35). […] Cells were grown in culture using EGM-2 medium (Cambrex), containing 10% FBS and 1% Penicillin/Streptomycin, followed by human endothelial serum free medium (Gibco) 24 h prior to all experimental conditions. Bone marrow derived mesenchymal stem cells (ScienCell Research Laboratories) were grown in mesenchymal stem cell medium (ScienCell Research Laboratories). Bone marrow derived hematopoietic stem cells (Lonza) were grown in HPGM medium (Lonza). Human corneal fibroblasts, from a stock provided by Dr. Elizabeth Hay (Harvard Medical School), were grown in RPMI medium, containing 10% FBS and 1% Penicillin/Streptomycin. Primary human osteoblasts, chondrocytes, and adipocytes and their respective growth media were obtained from Cell Applications, Inc. Recombinant TGF-β2, BMP4, and BMP7 proteins (R&D Systems) were added to the serum free culture medium for all relevant experiments at a concentration of 10 ng ml^−1. Recombinant VEGF (R&D Systems) was added to cultures at a concentration of 25 ng ml^−1. Dorsomorphin (Sigma-Aldrich) was added to cultures at a concentration of 5 μM.

[2] = system: HUVEC and HCMEC; test: Differentiation of treated endothelial cells in osteogenic, chondrogenic or adipogenic culture medium; assay type: cell-based, human; conditions: for alkaline phosphatase staining (osteoblasts) / alizarin red staining (matrix calcification) / gene expression of osteocalcin, osterix, COL2A1, SOX9, adiponectin, PPARγ2 (real-time quantitative PCR) / TIE2 expression in osteoblasts, chondrocytes and adipocytes derived from endothelial cells (immunoblotting): 48 hours treatment; for alkaline phosphatase staining (osteoblasts): then 7 days osteogenic medium; for alizarin red staining (matrix calcification): then 21 days osteogenic medium; for gene expression of osteocalcin, osterix, COL2A1, SOX9, adiponectin, PPARγ2 (real-time quantitative PCR): then osteogenic 7 days, chondrogenic 14 days or adipogenic 7 days, compared to vehicle; for differentiation by alkaline phosphatase, alizarin red, alcian blue or oil red O staining / protein expression of osterix, SOX9 and PPARγ2 (immunoblotting) / expression of endothelial markers TIE2, vWF, VE-cadherin, TIE1 in osteoblasts, chondrocytes, adipocytes derived from endothelial cells (immunoblot): 48 h treatment; for differentiation by alkaline phosphatase, alizarin red, alcian blue or oil red O staining: then differentiation medium 7-21 d; for protein expression of osterix, SOX9 and PPARγ2 (immunoblotting): then osteogenic 7 d, chondrogenic 14 d or adipogenic 7 d; for TIE2 expression in osteoblasts, chondrocytes and adipocytes derived from endothelial cells (immunoblotting) / expression of endothelial markers TIE2, vWF, VE-cadherin, TIE1 in osteoblasts, chondrocytes, adipocytes derived from endothelial cells (immunoblot): HCMEC, then differentiation medium
Protocol: RNA extractions were performed using the RNeasy Mini kit (Qiagen) and protocol. RNA samples were submitted to a core facility (Biopolymers Facility, Department of Genetics, Harvard Medical School) where real-time PCR experiments were conducted using the Syber Green PCR system (ABI) on an ABI 7500 cycler, with 40 cycles per sample. Cycling temperatures were as follows: denaturing 95° C.; annealing 60° C.; extension, 70° C. The following primers (Integrated DNA Technologies) were used: […]
Cells were grown in StemPro osteogenic, chondrogenic, or adipogenic culture medium (Invitrogen). Alkaline phosphatase staining was performed using the alkaline phosphatase kit and protocol (Sigma-Aldrich) on cultures grown in osteogenic medium for 7 days to detect osteoblasts. Alizarin Red (Sigma-Aldrich) staining was performed for 30 minutes on cultures grown in osteogenic medium for 21 days to detect matrix calcification. Alcian Blue (Sigma) staining was used to stain chondrocyte proteoglycans for 5 minutes in cultures grown in chondrogenic medium for 14 days. Oil Red O (Sigma-Aldrich) staining was performed for 15 minutes on cultures grown in adipogenic medium for 7 days.
(§1) Cells were grown in StemPro osteogenic, chondrogenic, or adipogenic culture medium (Invitrogen). Alkaline phosphatase staining was performed using the alkaline phosphatase kit and protocol (Sigma-Aldrich) on cultures grown in osteogenic medium for 7 d to detect osteoblasts. Alizarin Red (Sigma-Aldrich) staining was performed for 30 min on cultures grown in osteogenic medium for 21 d to detect matrix calcification. Alcian Blue (Sigma) staining was used to stain chondrocyte proteoglycans for 5 minutes in cultures grown in chondrogenic medium for 14 d. Oil Red O (Sigma-Aldrich) staining was performed for 15 min on cultures grown in adipogenic medium for 7 d. For in vivo analysis, endothelial cells were labeled with fluorescent quantum dots using the Qtracker 525 Cell Labeling Kit (Invitrogen). Cells were treated in culture to induce EndMT then absorbed into OPLA polylactic acid scaffolds (BD Biosciences). Scaffolds were surgically implanted subcutaneously into immunodeficient nude mice (Nu/Nu strain; Charles River Laboratories). Local injection of StemPro differentiation medium (described above) was performed in the area of the implants every 72 h for 6 weeks. Scaffolds were cryosectioned and stained with Alizarin Red, Alcian Blue, or Oil Red O as described above. All procedures were reviewed and approved by the Institutional Animal Care and Use Committee at Harvard Medical School.

[3] = system: HUVECs and HCMECs; test: In vivo multipotency: polylactic acid scaffolds with pre-treated endothelial cells implanted into nude mice; design: species or system immunodeficient nude mice; conditions: for co-expression of Qtracker label with osteocalcin, SOX9 or adiponectin in implants (immunohistochemistry): cells pre-labeled with quantum dots, pre-treated, implanted 6 weeks; for bone, cartilage or fat products in implanted scaffolds (alizarin red, alcian blue, oil red O): cells pre-treated, differentiation medium injected locally every 72 h for 6 weeks
Protocol: as §1

[4] = system: Human umbilical vein endothelial cells (HUVECs) and human cutaneous microvascular endothelial cells (HCMECs); test: Endothelial-mesenchymal transition (EndMT) in endothelial cells: morphology, marker expression by immunoblotting, flow cytometry, real-time PCR, ELISA; assay type: cell-based

Row | Substance | Smad5 phosphorylation [1] | phosphorylation of Smad2 and Smad5 (immunoblotting) [1] | alkaline phosphatase staining (osteoblasts) [2] | alizarin red staining (matrix calcification) [2] | gene expression of osteocalcin, osterix, COL2A1, SOX9, adiponectin, PPARγ2 (real-time quantitative PCR) [2] | differentiation by alkaline phosphatase, alizarin red, alcian blue or oil red O staining [2] | protein expression of osterix, SOX9 and PPARγ2 (immunoblotting) [2] | TIE2 expression in osteoblasts, chondrocytes and adipocytes derived from endothelial cells (immunoblotting) [2] | expression of endothelial markers TIE2, vWF, VE-cadherin, TIE1 in osteoblasts, chondrocytes, adipocytes derived from endothelial cells (immunoblot) [2] | staining of clonal populations for osteoblasts, chondrocytes or adipocytes (AP, AR, AB, OR) ([2]; three clonal populations of HUVEC and HCMEC, differentiation medium) | co-expression of Qtracker label with osteocalcin, SOX9 or adiponectin in implants (immunohistochemistry) [3] | bone, cartilage or fat products in implanted scaffolds (alizarin red, alcian blue, oil red O) [3] | TIE2 levels after 96 h of treatment [4]
1 | TGF-β2: Recombinant TGF-β2 protein (R&D Systems), ALK2 activating ligand, used at 10 ng/mL | phosphorylated | promoted phosphorylation of both Smad2 and Smad5 | strong positive staining | high levels of matrix calcification | dramatic increases | differentiated into other cell types | increases in protein expression | strong expression of TIE2 | showed expression of these endothelial markers | stained positive | co-expression of the Qtracker with osteocalcin, SOX9, or adiponectin | formation of bone, cartilage, or fat products | small decrease; also recorded: slight decrease
2 | BMP4: Recombinant BMP4 protein (R&D Systems), ALK2 activating ligand, used at 10 ng/mL | phosphorylated | promoted phosphorylation of both Smad2 and Smad5 | strong positive staining | high levels of matrix calcification | dramatic increases | differentiated into other cell types | increases in protein expression | strong expression of TIE2 | showed expression of these endothelial markers |  | co-expression of the Qtracker with osteocalcin, SOX9, or adiponectin | formation of bone, cartilage, or fat products | small decrease; also recorded: slight decrease

— patent publication US20130078718A1, “CONVERSION OF VASCULAR ENDOTHELIAL CELLS INTO MULTIPOTENT STEM-LIKE CELLS” (PRESIDENT AND FELLOWS OF HARVARD COLLEGE, priority 2010, published 2013)
